The record followed here is article PMC6204372, “An RORγt Oral Inhibitor Modulates IL-17 Responses in Peripheral Blood and Intestinal Mucosa of Crohn's Disease Patients” (Frontiers in Immunology, 2018).

The assay concerns the target T1, RORγ (RORγt) ligand-binding domain (Homo sapiens, UniProt P51449).
T1 construct: gene RORC
T1 sequence (P51449 265-507 limits assumed): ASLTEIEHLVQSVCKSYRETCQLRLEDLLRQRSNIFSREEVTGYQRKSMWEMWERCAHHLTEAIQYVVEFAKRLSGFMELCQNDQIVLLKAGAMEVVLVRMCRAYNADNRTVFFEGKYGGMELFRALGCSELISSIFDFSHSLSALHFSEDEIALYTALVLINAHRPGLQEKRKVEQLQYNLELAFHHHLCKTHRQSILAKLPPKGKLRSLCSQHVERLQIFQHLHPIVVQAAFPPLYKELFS
Put plainly: Kd for human RORγ LBD (binding method not stated); also RORγ LBD reporter assay IC50 […]. On the technique in general: In a reporter assay the amount or activity of a reporter protein is the signal.

By Kd is commonly meant a measure of binding affinity in units of concentration. BI119 yielded a Kd of 65 nM.
